Assay results as given in US20090156577A1, “7-AMINO ALKYLIDENYL-HETEROCYCLIC QUINOLONES AND NAPHTHYRIDONES” (priority 2004, published 2009).
In brackets after ≈: the same amount, converted by molar mass. Where a name gives a salt, the structure may show the parent alone. Read-outs that look alike come from different tables or passages of the source.

System: pathogenic bacteria
Experiment: MIC by microdilution broth method (NCCLS M7-A4), in vitro antibacterial activity
Type: cell-based
Procedure, shortened: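 MIC read after 35 °C incubation for 16–20 h relative to drug-free growth wells. Cation-adjusted Mueller-Hinton broth with two-fold compound dilutions, organisms at roughly 5×10^4 CFU/well final. Method follows NCCLS document M7-A4.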

[1] = Streptococcus pneumoniae, Organism B: fluoroquinolone-resistant clinical isolate of Streptococcus pneumoniae (QRDR amino acid substitutions)
[2] = Streptococcus pneumoniae, Organism C: fluoroquinolone-resistant clinical isolate of Streptococcus pneumoniae (QRDR amino acid substitutions)
[3] = Streptococcus pneumoniae, Organism D: fluoroquinolone-resistant clinical isolate of Streptococcus pneumoniae (QRDR amino acid substitutions)
[4] = Staphylococcus aureus, Organism A: Staphylococcus aureus OC4172, read-out: MIC
[5] = Streptococcus pneumoniae, ATCC49619, Organism E: Streptococcus pneumoniae ATCC 49619, read-out: MIC
[6] = Staphylococcus aureus, Organism A: Staphylococcus aureus OC4172
[7] = Streptococcus pneumoniae, ATCC49619, Organism E: Streptococcus pneumoniae ATCC 49619

SMILES | MIC [1] [µg/mL] | MIC [2] [µg/mL] | MIC [3] [µg/mL] | MIC [4] [µg/mL] | MIC [5] [µg/mL] | MIC [6] [µg/mL] | MIC [7] [µg/mL]
CNCC=C1CCN(c2c(F)cc3c(=O)c(C(=O)O)cn(C4CC4)c3c2OC)CC1 [Compound 221, 1-Cyclopropyl-6-fluoro-8-methoxy-7-[4-(2-methylamino-ethylidene)-piperidin-1-yl]-4-oxo-1,4-dihydro-quinoline-3-carboxylic Acid Trifluoroacetic Acid Salt] | 2 | 4 | 4 |  |  |  | 
CC(C)NCC(F)=C1CCN(c2nc3c(cc2F)c(=O)c(C(=O)O)cn3C2CC2)CC1 [Compound 247, 1-Cyclopropyl-6-fluoro-7-[4-(1-fluoro-2-isopropylamino-ethylidene)-piperidin-1-yl]-4-oxo-1,4-dihydro-[1,8]naphthyridine-3-carboxylic acid] |  | 8 (≈ 18.5 µM) | 2 (≈ 4.62 µM) | 0.5 (≈ 1.16 µM) | 0.5 (≈ 1.16 µM) |  | 
CC(C)NCC(Cl)=C1CCN(c2cc3c(cc2F)c(=O)c(C(=O)O)cn3C2CC2)CC1 [Compound 248, 7-[4-(1-Chloro-2-isopropylamino-ethylidene)-piperidin-1-yl]-1-cyclopropyl-6-fluoro-4-oxo-1,4-dihydro-quinoline-3-carboxylic acid] |  | 16 (≈ 35.7 µM) | 4 (≈ 8.93 µM) | 0.5 (≈ 1.12 µM) | 2 (≈ 4.46 µM) |  | 
CC(C)NCC(F)=C1CCN(c2cc3c(cc2F)c(=O)c(C(=O)O)cn3C2CC2)CC1 [Compound 249, 1-Cyclopropyl-6-fluoro-7-[4-(1-fluoro-2-isopropylamino-ethylidene)-piperidin-1-yl]-4-oxo-1,4-dihydro-quinoline-3-carboxylic acid] |  | 16 (≈ 37.1 µM) | 4 (≈ 9.27 µM) | 1 (≈ 2.32 µM) | 2 (≈ 4.64 µM) |  | 
CC(C)NCC(Cl)=C1CCN(c2c(F)cc3c(=O)c(C(=O)O)cn(C4CC4)c3c2OC(F)F)CC1 [Compound 250, 7-[4-(1-Chloro-2-isopropylamino-ethylidene)-piperidin-1-yl]-1-cyclopropyl-8-difluoromethoxy-6-fluoro-4-oxo-1,4-dihydro-quinoline-3-carboxylic acid] |  | 8 (≈ 15.6 µM) | 0.5 (≈ 0.973 µM) | 0.25 (≈ 0.486 µM) | 0.5 (≈ 0.973 µM) |  | 
CC(C)NCC(F)=C1CCN(c2c(F)cc3c(=O)c(C(=O)O)cn(C4CC4)c3c2OC(F)F)CC1 [Compound 251, 1-Cyclopropyl-8-difluoromethoxy-6-fluoro-7-[4-(1-fluoro-2-isopropylamino-ethylidene)-piperidin-1-yl]-4-oxo-1,4-dihydro-quinoline-3-carboxylic acid] |  | 16 (≈ 32.2 µM) | > 2 | 0.5 (≈ 1.01 µM) | 1 (≈ 2.01 µM) |  | 
COc1c(N2CCC(=C(F)CNC(C)C)CC2)c(F)cc2c(=O)c(C(=O)O)cn(C3CC3)c12 [Compound 252, 1-Cyclopropyl-6-fluoro-7-[4-(i-fluoro-2-isopropylamino-ethylidene)-piperidin-1-yl]-8-methoxy-4-oxo-1,4-dihydro-quinoline-3-carboxylic Acid trifluoroacetic acid salt] |  | 8 | 4 | 0.5 | 1 |  | 
NC/C(F)=C1/CCCN(c2nc3c(cc2F)c(=O)c(C(=O)O)cn3C2CC2)C1 [Compound 253, (E)-7-[3-(2-Amino-1-fluoro-ethylidene)-piperidin-1-yl]-1-cyclopropyl-6-fluoro-4-oxo-1,4-dihydro-[1,8]naphthyridine-3-carboxylic acid trifluoroacetic acid salt] | 4 | > 16 | 4 |  |  | 0.06 | 0.5
NC/C(Cl)=C1/CCCN(c2nc3c(cc2F)c(=O)c(C(=O)O)cn3C2CC2)C1 [Compound 254, (E)-7-[3-(2-Amino-1-chloro-ethylidene)-piperidin-1-yl]-1-cyclopropyl-6-fluoro-4-oxo-1,4-dihydro-[1,8]naphthyridine-3-carboxylic acid] |  | 4 (≈ 9.83 µM) | 4 (≈ 9.83 µM) | 0.06 (≈ 0.147 µM) | 0.25 (≈ 0.614 µM) |  | 
NC/C(Cl)=C1\CCCN(c2nc3c(cc2F)c(=O)c(C(=O)O)cn3C2CC2)C1 [Compound 255, (Z)-7-[3-(2-Amino-1-chloro-ethylidene)-piperidin-1-yl]-1-cyclopropyl-6-fluoro-4-oxo-1,4-dihydro-[1,8]naphthyridine-3-carboxylic acid] | 2 (≈ 4.92 µM) | 4 (≈ 9.83 µM) | 16 (≈ 39.3 µM) | 0.5 (≈ 1.23 µM) | 4 (≈ 9.83 µM) |  | 
NC/C(F)=C1/CCCN(c2cc3c(cc2F)c(=O)c(C(=O)O)cn3C2CC2)C1 [Compound 256, (E)-7-[3-(2-Amino-1-fluoro-ethylidene)-piperidin-1-yl]-1-cyclopropyl-6-fluoro-4-oxo-1,4-dihydro-quinoline-3-carboxylic Acid Trifluoroacetic Acid Salt] | 1 | 1 | 1 |  |  | 0.03 | 0.06
NC/C(Cl)=C1/CCCN(c2cc3c(cc2F)c(=O)c(C(=O)O)cn3C2CC2)C1 [Compound 257, (E)-7-[3-(2-Amino-1-chloro-ethylidene)-piperidin-1-yl]-1-cyclopropyl-6-fluoro-4-oxo-1,4-dihydro-quinoline-3-carboxylic acid] | 0.5 (≈ 1.23 µM) | 0.5 (≈ 1.23 µM) | 0.5 (≈ 1.23 µM) | 0.03 (≈ 0.0739 µM) | 0.06 (≈ 0.148 µM) |  | 
NC/C(Cl)=C1\CCCN(c2cc3c(cc2F)c(=O)c(C(=O)O)cn3C2CC2)C1 [Compound 258, (Z)-7-[3-(2-Amino-1-chloro-ethylidene)-piperidin-1-yl]-1-cyclopropyl-6-fluoro-4-oxo-1,4-dihydro-quinoline-3-carboxylic acid] | 8 (≈ 19.7 µM) | > 16 | > 16 | ≤ 4 | 8 (≈ 19.7 µM) |  | 
NC/C(F)=C1/CCCN(c2c(F)cc3c(=O)c(C(=O)O)cn(C4CC4)c3c2OC(F)F)C1 [Compound 259, (E)-7-[3-(2-Amino-1-fluoro-ethylidene)-piperidin-1-yl]-1-cyclopropyl-8-difluoromethoxy-6-fluoro-4-oxo-1,4-dihydro-quinoline-3-carboxylic acid] | 0.5 (≈ 1.1 µM) | 1 (≈ 2.2 µM) | 0.12 (≈ 0.263 µM) | 0.03 (≈ 0.0659 µM) | 0.06 (≈ 0.132 µM) |  | 
NC/C(Cl)=C1/CCCN(c2c(F)cc3c(=O)c(C(=O)O)cn(C4CC4)c3c2OC(F)F)C1 [Compound 260, (E)-7-[3-(2-Amino-1-chloro-ethylidene)-piperidin-1-yl]-1-cyclopropyl-8-difluoromethoxy-6-fluoro-4-oxo-1,4-dihydro-quinoline-3-carboxylic acid] |  | 0.5 (≈ 1.06 µM) | 0.06 (≈ 0.127 µM) | 0.03 (≈ 0.0636 µM) | 0.06 (≈ 0.127 µM) |  | 
COc1c(N2CCC/C(=C(\Cl)CN)C2)c(F)cc2c(=O)c(C(=O)O)cn(C3CC3)c12 [Compound 261, (E)-7-[3-(2-Amino-1-chloro-ethylidene)-piperidin-1-yl]-1-cyclopropyl-6-fluoro-8-methoxy-4-oxo-1,4-dihydro-quinoline-3-carboxylic Acid Trifluoroacetic Acid Salt] | 0.06 | 0.06 | 0.06 |  |  | ≤ 0.015 | ≤ 0.015
COc1c(N2CCC(=C(Cl)CN)CC2)c(F)cc2c(=O)c(C(=O)O)cn([C@@H]3C[C@@H]3F)c12 [Compound 262, 7-[4-(2-Amino-1-chloro-ethylidene)-piperidin-1-yl]-6-fluoro-(1R,2S)-1-(2-fluoro-cyclopropyl)-8-methoxy-4-oxo-1,4-dihydro-quinoline-3-carboxylic acid] |  | 1 (≈ 2.2 µM) | 1 (≈ 2.2 µM) | ≤ 0.015 | 0.25 (≈ 0.551 µM) |  | 
Cc1c(F)c(N2CCC(=C(Cl)CN)CC2)cc2c1c(=O)c(C(=O)O)cn2C1CC1 [Compound 263, 7-[4-(2-Amino-1-chloro-ethylidene)-piperidin-1-yl]-1-cyclopropyl-6-fluoro-5-methyl-4-oxo-1,4-dihydro-quinoline-3-carboxylic Acid] | 0.5 (≈ 1.19 µM) | 1 (≈ 2.38 µM) | 0.5 (≈ 1.19 µM) | 0.03 (≈ 0.0714 µM) | 0.12 (≈ 0.286 µM) |  | 
CNCC(Cl)=C1CCN(c2c(F)cc3c(=O)c(C(=O)O)cn(C4CC4)c3c2O)CC1.Cl [Compound 267, 7-[4-(1-Chloro-2-methylamino-ethylidene)-piperidin-1-yl]-1-cyclopropyl-6-fluoro-8-hydroxy-4-oxo-1,4-dihydro-quinoline-3-carboxylic Acid Hydrochloride Salt] | 2 | 2 | 2 | 0.12 | 0.5 |  | 
NCC(Cl)=C1CN(c2c(F)cc3c(=O)c(C(=O)O)cn(-c4nc(N)c(F)cc4F)c3c2Cl)C1 [Compound 268, 7-[3-(2-Amino-1-chloro-ethylidene)-azetidin-1-yl]-1-(6-amino-3,5-difluoro-pyridin-2-yl)-8-chloro-6-fluoro-4-oxo-1,4-dihydro-quinoline-3-carboxylic Acid] | 0.06 (≈ 0.12 µM) | 0.12 (≈ 0.24 µM) | 0.12 (≈ 0.24 µM) | ≤ 0.015 | 0.03 (≈ 0.06 µM) |  | 
NCC(F)=C1CN(c2c(F)cc3c(=O)c(C(=O)O)cn(-c4nc(N)c(F)cc4F)c3c2Cl)C1 [Compound 269, 1-(6-Amino-3,5-difluoro-pyridin-2-yl)-7-[3-(2-amino-1-fluoro-ethylidene)-azetidin-1-yl]-8-chloro-6-fluoro-4-oxo-1,4-dihydro-quinoline-3-carboxylic acid] | 0.25 (≈ 0.517 µM) | 0.06 (≈ 0.124 µM) |  | ≤ 0.015 | 0.03 (≈ 0.062 µM) |  | 
NCC(Cl)=C1CCN(c2c(F)cc3c(=O)c(C(=O)O)cn(-c4nc(N)c(F)cc4F)c3c2Cl)CC1 [Compound 270, 7-[4-(2-Amino-1-chloro-ethylidene)-piperidin-1-yl}-1-(6-amino-3,5-difluoropyridin-2-yl)-8-chloro-6-fluoro-4-oxo-1,4-dihydro-quinoline-3-carboxylic Acid] |  | 4 (≈ 7.57 µM) | 2 (≈ 3.79 µM) | 0.06 (≈ 0.114 µM) | 0.5 (≈ 0.946 µM) |  | 
